1 molecule from patent US20190111040A1, “IN VIVO AMELIORATION OF ENDOGENOUS ANTI-TUMOR AUTOANTIBODIES TARGETING SURFACE TUMOR ANTIGENS VIA LOW-DOSE P4N” (THE JOHNS HOPKINS UNIVERSITY, priority 2016, published 2019) can be followed below.

Structures are written as SMILES. Counter-ions that a name gives are not always drawn.

Assay [1] relates to CT26 tumors. Nature of the assay: P4N treatments in vivo, CT-26 tumors in nude mice. Further details: species or system nude mice (BALB/c/nu). To be noted: immunodeficient nude mice, one intratumoral injection of 2.5 mg/kg or 5 mg/kg. Here is the method: P4N treatments in vivo. BALB/c or BALB/c/nu mice (6 week old) were inoculated subcutaneously with 1×10^6 CT-26 cells in 100 μl PBS. When the average tumor mass reached 50 mm^3, the animals were treated with 2.5 mg/kg or 5 mg/kg of P4N in one intratumoral injection. Subsequently, the tumor volumes were measured using a caliper every 2 days, and the volumes were calculated using the following formula: volume (mm^3)=length×width×height. Before sacrifice, the sera of the mice were collected for experimental use.

The subject of assay [2] is PBMCs. Put plainly: Cytokine and chemokine profile of P4N treated PBMC, Bio-Plex. The format is cell-based, human. As to conditions: 3 μM P4N. The protocol: PBMCs isolated from 7 healthy donors were treated with 3 μM of P4N for 48 h. Supernatants were collected and analyzed for human cytokines using the Bio-Plex assay. Shown are the changed results of the production of 27 human cytokines when PBMCs were treated with P4N in three independent experiments. The levels of IL-4, IL-5, IL-7, IL-9, Eotaxin and FGF were undetectable.
The effects of P4N on the profile of cytokine expression. PBMCs (2×10^6 cells/ml) from seven healthy individuals were seeded in each well of a 24-well microplate and treated with 3 μM of P4N for 24 h. Cell supernatants were collected for analysis of cytokine levels by a cytokine multiplex assay using the Bio-Plex Pro Human Cytokine Standard Group I 27-Plex, following the manufacturer's protocol (Bio-Rad, Hercules, Calif.). The change levels of cytokine were calculated as follows: Change level=(value of the P4N-treated cells)/(value of the untreated cells)×100%.

Assay [3] has as its system mouse splenocytes. Put plainly: Activin A and BAFF expression in mouse splenocytes. To be noted: low dose P4N. The format is cell-based. Here is the method:
FIGS. 14A-14C depict P4N-induced mouse B cell proliferation via the Activin A/BAFF pathway. (A) The proliferation of P4N-treated splenocytes. Splenocytes isolated from three mice were individually treated with increasing concentrations of P4N for 48 h and their proliferation was analyzed by MTT assay. The data are reported as the proliferation index. […] (B) The proliferation of B cells in mouse splenocytes treated with low doses of P4N. After treatment with P4N for 48 h, B-cells were identified by CD19 surface marker staining and the cell number was calculated following a flow cytometer analysis. […] Levels of Activin A and BAFF transcripts were measured by RT-PCR. Each sample obtained from 3 different mice; N, no treatment; P, P4N-treatment.
Reverse transcription PCR. Human PBMCs or THP-1 cells were treated with P4N, and then the mRNA expression of INHBA and BAFF in these cells was measured by reverse transcription PCR. Briefly, total cellular RNA was extracted with Trizol reagent (Invitrogen) and reverse-transcribed into cDNA using the Superscript RT-kit (Invitrogen). The cDNA of INHBA and BAFF were then amplified by PCR. GAPDH cDNA in the samples was used to normalize the loading amounts in each reaction. Finally, PCR products were resolved by electrophoresis on 2% agarose gels and visualized with ethidium bromide.

For `C[C@H](Cc1ccc(OCCN2CCCCC2)c(OCCN2CCCCC2)c1)[C@@H](C)Cc1ccc(OCCN2CCCCC2)c(OCCN2CCCCC2)c1` [P4N, meso-2,3-dimethyl-1,4-bis(3,4-[2-(piperidino)ethoxyphenyl])butane tetrakishydrochloride salt], the “growth of CT26 tumors” value in assay [1] was “had no effect”. Further, the “levels of pro-inflammatory cytokines (TNF-α, IL-1P and IL-6) and chemokines (IL-8, IP-10, MIP-1α, MIP-1β and RANTES)” value in assay [2] was “significantly increased”. Moreover, the “levels of IL-4, IL-5, IL-7, IL-9, Eotaxin and FGF” value in assay [2] (48 h) is on record as “undetectable”. For the same molecule, in assay [3], the “gene expression and protein production of Activin A and BAFF” value was “increase their gene expression and protein production”.
